{
  "source": "patent US20260176254A1",
  "about": "“INHIBITORS OF PROSTATE SPECIFIC MEMBRANE ANTIGEN AND USE THEREOF” (SHANGHAI SINOTAU BIOTECH. CO., LTD, priority 2023, published 2026)",
  "target": "T1, recombinant human PSMA (rhPSMA) (Homo sapiens, UniProt Q04609)",
  "T1 construct": "purchased Sino Biological",
  "T1 sequence (Q04609 whole entry)": "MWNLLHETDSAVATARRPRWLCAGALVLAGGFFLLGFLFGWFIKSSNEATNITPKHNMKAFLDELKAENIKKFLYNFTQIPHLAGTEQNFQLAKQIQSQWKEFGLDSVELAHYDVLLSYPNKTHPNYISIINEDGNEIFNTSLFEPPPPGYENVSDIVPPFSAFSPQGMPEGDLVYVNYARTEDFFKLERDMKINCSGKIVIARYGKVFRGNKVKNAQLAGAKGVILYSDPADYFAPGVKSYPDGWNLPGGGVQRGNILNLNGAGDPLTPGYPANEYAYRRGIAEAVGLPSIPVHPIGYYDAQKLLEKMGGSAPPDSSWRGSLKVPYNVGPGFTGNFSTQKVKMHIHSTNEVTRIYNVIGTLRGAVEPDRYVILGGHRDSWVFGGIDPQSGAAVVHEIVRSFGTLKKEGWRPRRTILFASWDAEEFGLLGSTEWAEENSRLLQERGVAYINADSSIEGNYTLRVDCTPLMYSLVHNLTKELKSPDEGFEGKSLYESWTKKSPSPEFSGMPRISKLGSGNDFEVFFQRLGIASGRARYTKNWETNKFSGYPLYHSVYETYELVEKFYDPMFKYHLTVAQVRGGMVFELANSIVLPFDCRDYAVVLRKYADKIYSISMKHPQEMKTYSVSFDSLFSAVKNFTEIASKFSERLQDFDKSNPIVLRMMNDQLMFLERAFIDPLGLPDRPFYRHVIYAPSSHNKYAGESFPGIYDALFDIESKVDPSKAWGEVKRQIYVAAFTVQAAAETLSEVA",
  "assay": "Naaladase assay (fluorescence-based Naaladase activity inhibition)",
  "assay_type": "biochemical",
  "conditions": "rhPSMA 0.4 μg/mL, substrate N-Acetyl-Asp-Glu 40 μM, 37° C. one hour",
  "method": "Naaladase activity inhibition was determined using a fluorescence-based assay. Briefly, the solution containing the substrate N-Acetyl-Asp-Glu (Sigma-Aldrich) at 40 μM and the compound at concentrations from 0.15 nM to 1000 nM was mixed at equal volume with recombinant human PSMA (rhPSMA, Sino Biological) at 0.4 μg/mL, in assay buffer (50 mM HEPES, 100 mM NaCl, pH 7.5). The enzymatic reaction was proceeded by incubation at 37° C. for one hour and then stopped by heating at 95° C. for 5 minutes. A solution of 15 mM ortho-phthaldialdehyde (Sigma-Aldrich) was added to all vials and incubated for 10 min at ambient temperature. The reaction solutions were loaded onto a 96-well flat clear bottom black microplates (Corning) and read at excitation and emission wavelengths of 330 and 450 nm, respectively, using a microplate reader (Tecan). The data were analyzed by a one-site total binding regression algorithm of GraphPad Prism (GraphPad Software).",
  "data": [
    {"smiles": "O=C(O)CC[C@H](NC(=O)N[C@@H](CCCCNC(=O)C(Cc1ccc2ccccc2c1)Nc1nnc(C23CCC(CNC(=O)CN4CCN(CC(=O)O)CCN(CC(=O)O)CCN(CC(=O)O)CC4)(CC2)CC3)o1)C(=O)O)C(=O)O", "note": "(single isomer, unassigned) [E17]", "values": [
      {"measurement": "IC50", "value": 3.5, "unit": "nM"}
    ]},
    {"smiles": "O=C(O)CC[C@H](NC(=O)N[C@@H](CCCCNC(=O)C(Cc1ccc2ccccc2c1)Nc1nnc(C23CCC(CNC(=O)CN4CCN(CC(=O)O)CCN(CC(=O)O)CCN(CC(=O)O)CC4)(CC2)CC3)o1)C(=O)O)C(=O)O", "note": "(single isomer, unassigned) [E18]", "values": [
      {"measurement": "IC50", "value": 3.7, "unit": "nM"}
    ]},
    {"smiles": "O=C(O)CCC[C@H](NC(=O)N[C@@H](CCCCNC(=O)[C@H](Cc1c2ccccc2cc2ccccc12)Nc1c(NC23CCC(CNC(=O)CN4CCN(CC(=O)O)CCN(CC(=O)O)CCN(CC(=O)O)CC4)(CC2)CC3)c(=O)c1=O)C(=O)O)C(=O)O", "note": "[E2, (S)-2-(3-((S)-5-((S)-3-(anthracen-9-yl)-2-((3,4-dioxo-2-((4-((2-(4,7,10-tris(carboxymethyl)-1,4,7,10-tetraazacyclododecan-1-yl)acetamido)methyl)bicyclo[2.2.2]octan-1-yl)amino)cyclobut-1-en-1-yl)amino)propanamido)-1-carboxypentyl)ureido)hexanedioic acid]", "values": [
      {"measurement": "IC50", "value": 4, "unit": "nM"}
    ]},
    {"smiles": "O=C(O)CC[C@H](NC(=O)N[C@@H](CCCCNC(=O)[C@H](Cc1ccc2ccccc2c1)Nc1c(Nc2ccc3c(c2)CCN(C(=O)CN2CCN(CC(=O)O)CCN(CC(=O)O)CCN(CC(=O)O)CC2)C3)c(=O)c1=O)C(=O)O)C(=O)O", "note": "[E5]", "values": [
      {"measurement": "IC50", "value": 3, "unit": "nM"}
    ]}
  ]
}
